According to US9815883B2, “Inhibiting peptides derived from TREM-like transcript 1 (TLT-1) and uses thereof” (Institut National de la Sante et de la Recherche Medicale …, priority 2010, dated 2017):

Key:
TREM-1 ligand (agonist) = experiment: Immunoblot revealed by mouse anti-TREM-1 mAb (TREM-1 agonist); assay type: binding; conditions: FIG. 1A
Text: To determine whether sTLT-1 may specifically bind to the TREM-1 ligand and thus interfere with the TREM-1/TREM-1 ligand interaction, we used a specific TREM-1 agonist known to bind and activate TREM-1, mimicking TREM-1 engagement by its ligand.

male Balb/c mice [1] = experiment: Caecal ligation and puncture (CLP) polymicrobial sepsis model; assay type: in vivo, mouse; conditions: LR12 in septic mice
male Balb/c mice [2] = experiment: as above; assay type: in vivo, mouse; conditions: heading only; evaluation without results
Description: Adult male Balb/c mice (20-23 g) were subjected to caecal ligation and puncture under isoflurane anaesthesia and were randomly grouped (n=5-10 per group) to receive a single LR17 (100 μg in 0.2 mL NaCl 0.9%), scrambled-LR17 ([…] in 0.2 mL NaCl 0.9%), or 0.2 mL NaCl 0.9% i.p. injection. After 24 hours, animals were killed under anaesthesia. Results are mean±SD. p values are *p<0.05, **p<0.01, ***p<0.001 compared with control animals.
(A-B) Adult male Balb/c mice (20-23 g) were subjected to caecal ligation and puncture under isoflurane anaesthesia and were randomly grouped (n=25-40 per group) to receive a LR17, scrambled-LR17, or 0.2 mL NaCl 0.9% i.p. injection at indicated times. Survival was monitored over 1 wk and analyzed by Log Rank test.
Male Balb/c mice (4-6 weeks) were anesthetized with isoflurane. The cecum was exposed through a 1.0 cm abdominal midline incision and subjected to a ligation of the distal half followed by one puncture with a G21 needle. A small amount of stool was expelled from the puncture to ensure patency. The cecum was replaced into the peritoneal cavity and the abdominal incision closed in two layers. After surgery, all mice were injected s.c. with 0.5 mL of 0.9% NaCl solution for fluid resuscitation. The animals were randomly grouped and treated LR17 or LR17-scrambled as control in 250 μL 0.9% NaCl solution and administered i.p. In order to determine the effect of various doses of LR17 at different times, mice were treated with 50, 100 or 200 μg of LR17 at H1 after surgery, or with 3 injections of 100 μg at 2, 6 and 24 hours or with 100 μg in one injection at 24 hours after CLP and then monitored for survival. Five additional animals per group were killed under anaesthesia at 24 h after CLP for the determination of bacterial count and cytokines levels. Peritoneal lavage fluid was obtained using 2 mL RPMI 1640 (EuroBio), and blood was collected by cardiac puncture. Concentrations of plasma cytokines were determined by ELISA (R&Dsystems). For the assessment of bacterial counts, blood and crushed spleen were plated in serial log dilutions on tryptic soy supplemented with 5% sheep blood agar plates. After plating, tryptic soy agar plates were incubated at 37° C. aerobically for 24 h and anaerobically for 48 h. Results are expressed as CFU per ml of blood or per gram of spleen.

[3] = tested on: TREM-1 ligand expressed on resting or thrombin-activated human platelets; experiment: Flow cytometry binding of FITC-labelled peptides to human platelets; conditions: competition with unlabelled substance
Description: (B) Flow cytometry analysis of FITC-labelled LR17 (1 or 5 μg/mL) binding to TREM-1 ligand expressed on resting or thrombin-activated (5 UI/mL) human platelets is reversed by co-incubation with unlabelled LR17, sTLT-1 or LP17, a TREM-1 derived peptide.
Acid Citrate Dextrose blood samples were centrifuged (100 g, 10 min) to obtain Platelet-Rich Plasma. PRP was then centrifuged (550 g, 10 min) over a 36% (wt/vol) BSA gradient and platelets collected from the interphase before being washed in Tyrode's salts buffer (Sigma-Aldrich) supplemented with 5 mM EGTA. For activation, platelets were incubated for 30 minutes with 5 U/mL thrombin (Sigma-Aldrich) or 1 μg/mL E. Coli LPS (0111:B4, Sigma-Aldrich) at 37° C. and subsequently fixed with 2% (wt/vol) paraphormaldehyde (PFA, Sigma-Aldrich). Residual PFA was removed by two additional washing steps in Tyrode buffer. Activation was assessed by anti-CD62P (Beckman Coulter).
Isolated cells (neutrophils, monocytes or platelets) were blocked for aspecific binding with 10% human Ig (Sigma-Aldrich) for 1 hour on ice. Cells were incubated with recombinant soluble FITC-labelled TLT-1-peptides, FITC-labelled LP17 (or corresponding FITC-labelled scrambled peptides), PE-labelled anti-TREM-1 mAb (R&Dsystems), CD62P-FITC, CD66b-PE, CD45-PE, CD14-FITC (all from Beckman Coulter)

human neutrophils = experiment: Neutrophil phagocytosis and oxidative burst (Phagotest, Bursttest); assay type: cell-based
Description: Data (mean±SD) are representative of 6 different experiments.
The quantitative determination of neutrophil phagocytosis and oxidative burst was performed by flow cytometry using the Phagotest and the Bursttest (Orpegen Pharma, Heidelberg, Germany) following the manufacturers' recommendations. A FITC-labelled opsonized E. coli was used to determine the general phagocytic activity (ingestion of one or more bacteria per cell) and the individual cellular phagocytic activity (number of bacteria per cell). For evaluation of oxidative burst activity, unlabeled opsonized E. coli, fMLP, PMA LPS and activated- or non-activated-platelets (30:1) were used as stimulants and DCFDA as a fluoregenic substrate (Invitrogen) accordingly with manufacturers' instructions.

“GAEREVCMDEYGALQDG (listed as Homo sapiens) [LR17-scrambled, control peptide, reference compound]” was tested, and the “binding to the TREM-1 ligand (TREM-1 agonist, anti-TREM-1 mAb)” value (TREM-1 ligand (agonist)) was “not”.

For “LQEEDAGEYGCM (listed as Homo sapiens) [LR12, N-terminal 12 amino-acids from LR17]”, the “coagulation disorders (platelet count)” value (male Balb/c mice [1]; FIG. 7c) was “significant protection”, the survival rate (male Balb/c mice [1]; FIG. 7g) was “improved survival rate” and the “organ dysfunction (lung histopathology)” value (male Balb/c mice [1]; FIG. 7d) was “significant protection”. The “systemic, broncho-alveolar and organ inflammation” value (male Balb/c mice [1]; FIGS. 7a and b) was “significant protection”.

For “GEYGCM (listed as Homo sapiens) [LR6-3, 6 amino-acids derived from LR17]”, the “protection against polymicrobial sepsis” value (male Balb/c mice [2]) was “Protect Mice Against Polymicrobial Sepsis”.

In the case of “LQEEDA (listed as Homo sapiens) [LR6-1, 6 amino-acids derived from LR17]”, the “protection against polymicrobial sepsis” value (male Balb/c mice [2]) is reported as “Protect Mice Against Polymicrobial Sepsis”.

With “EDAGEY (listed as Homo sapiens) [LR6-2, 6 amino-acids derived from LR17]” the “protection against polymicrobial sepsis” value (male Balb/c mice [2]) was “Protect Mice Against Polymicrobial Sepsis”.

B1: sTLT-1: soluble TLT-1 (TREM-like transcript 1), recombinant (protein)
chain: QGIVGSLPEVLQAPVGSSILVQCHYRLQDVKAQKVWCRFLPEGCQPLVSSAVDRRAPAGRRTFLTDLGGGLLQVEMVTLQEEDAGEYGCMVDGARGPQILHRVSLNILPPEEEEETHKIGSLAENAFSDPAGSANPLEPSQDEKSIP
With B1 the “effect of co-incubation on FITC-labelled LP17 binding to platelets” value [3] was “decreased”, the “effect of co-incubation on FITC-labelled LR17 binding to platelets” value [3] was “reversed” and the “neutrophils' phagocytic properties” value (human neutrophils; E. coli) was “did not alter”. For the same molecule, the “PMA- or fMLP-induced oxidative burst” value (human neutrophils; not shown) was “no action” and the “binding to the TREM-1 ligand (TREM-1 agonist, anti-TREM-1 mAb)” value (TREM-1 ligand (agonist)) was “able to bind the TREM-1 ligand”.
